Experiment [1] concerns mouse model of RA (collagen type II arthritis). Briefly: Murine collagen type II arthritis, early and advanced disease. It counts as in vivo. How it is done:
A p38α MAP kinase inhibitor (compound 162, Table B) was evaluated to determine whether a p38 inhibitor could modulate cartilage and bone destruction in a mouse model of RA. Induction of RA was achieved using bovine type II cartilage (100 ug/kg, subcutaneous on days 0 and 21) and bacterial lipopolysaccharide (50 ug/mouse, intraperitoneal on day 22).
Oral treatment was vehicle alone (1% PEG 400, bid) or the p38 inhibitor (90 mg/kg bid). The duration of treatment was 10 and 20 days in mice with early onset or advanced disease, respectively. Treatment was initiated in mice with early onset or advanced disease. Disease state was determined by clinical scoring performed in a blinded protocol that assigned a maximum per paw value of 3 based upon degree of erythema and swelling observed. Early or advanced disease was judged by clinical scoring, 1.6+0.6 (mean+/−std dev) on day 24 and 9.1±2.6 on day 30, respectively.

The test system of experiment [2] is closed femur fractures in female retired breeder Sprague-Dawley rats. Briefly: Closed femur fracture healing in rats, radiographic analysis. It counts as in vivo, rat. The note with it: for Radiographic score, Mean: Group C rats, score 0 to 4. As to the method: Closed femur fractures were made in female retired breeder Sprague-Dawley rats. The rats were given oral doses of the p38 MAP kinase inhibitor (compound 25, Table B)(30 mg/kg) once or twice per day and either vehicle only (control) or rofecoxib (Vioxx, 3 mg/kg, once a day) as a positive control for fracture inhibition.
(§1) Retired breeder female Sprague-Dawley rats were purchased from Taconic Farms. The rats were housed in pairs and given food and water ad libitum. A total of 124 rats were purchased for these experiments (Table 4). However, only 65 rats were used for the final set of experiments as described in Table 4. Drugs were first administered to the rats by gavage using PEG300 (Sigma) as a carrier (0.5 ml per kg). Rats were initially gavaged with drugs 6 hours after surgery (between 4 and 6 PM on day 1) and then twice/day afterwards for 5 days (between 6-8 AM and again between 5-7 PM). The p38 MAP kinase inhibitor used in the experiments is compound 25, Table B. Rofecoxib was obtained by pulverizing Vioxx pills (Merck).
(§2) Rats were anesthetized with a ketamine-xylazine mixture. The right hindlimb was shaved, and cleansed with betadine. A medial parapatellar incision was made through the skin and underlying muscle to the distal end of the femur. The patella was dislocated laterally to expose the femoral condyles. A 20 g needle was used to drill a hole into the distal end of the femur, between the condyles, and then used to ream the femoral canal. A 0.81 mm diameter stainless steel wire was then inserted into the femoral condyle and tamped into the proximal end of the femur. The rod was then trimmed as close as possible to the femoral condyles with wire cutters. The incision was closed in two layers with resorbable Vicryl sutures. A mid-shaft transverse fracture was made in the right femur using a three-point bending device as described previously (Bonnarens, F. and Einhorn, T. A., J. Orthop. Res. 2:97-101 (1984)).
Radiographs were made using an HP Faxitron and Kodak MINR2000 mammography film. Radiographs were photographed with and Olympus C-3040 digital camera for figure preparation. The 4 week post-fracture radiographs from all the rats that had survived to 4 weeks in Group C (rats 60-124) and which were not comminuted, infected, or destabilized were scored as follows. One point was assigned to each radiograph in which a cortex of the fracture callus appeared bridged and/or where the cortical bone fracture site appeared to be bridged by new bone. Thus a radiograph could have a minimal score of 0 or a maximal score of 4.

The test system is the same in experiment [3]. Briefly: Closed femur fracture healing in rats, torsional mechanical testing. It counts as in vivo, rat. As to the method: Torsional mechanical testing was performed on the fractured (right) and contralateral (left) femurs from control, rofecoxib (3 mg/kg/day); p38 MAP kinase inhibitor (30 mg/kg/day), and p38 MAP kinase inhibitor (2×30 mg/kg/day). The stabilizing rods were removed from the femurs prior to testing and the femurs were wrapped in saline soaked gauze to prevent dehydration prior to testing. The ends of the femurs were potted in hex nuts with Wood's metal and the peak torque and angle failure determined using an MTS servohydraulic mechanical testing machine and a 20 Nm reaction torque load cell as per standard procedures (Simon, A. M. et al., J. Bone Miner. Res. 17:963-976 (2002)). Femur and fracture callus dimensions and gage length were measured before and after mechanical testing using digital calipers. The values obtained were used to calculate torsional rigidity, and shear stress as described (Simon, A. M. et al., J. Bone Min. Res., in press (2002)). Finally, the data was normalized as the percentage of the fractured femur relative to the contralateral femur for each animal. This helped to reduce animal-to-animal variability.
as §1, §2
Rats with oblique, comminuted, or infected fractures were not used for mechanical testing (see Appendix A). Both femora were removed and cleaned of all soft tissue leaving the fracture callus undisturbed and then immediately processed for mechanical testing. The samples were wrapped in saline soaked gauze to prevent dehydration between steps. Measurements of the femora were taken using digital calipers to determine femur length and external callus dimensions. The intramedullary pin was removed from the fractured femur. The femoral ends were potted in 1-inch hexnuts using a low melt temperature metal (Wood's metal, Alfa Aesar, Ward Mill, Mass.). Once potted, the gage length (L) of each femur was measured. Torsional testing was conducted using a servohydraulic testing machine (MTS, Eden, Praire, Minn.) with a 20 Nm reaction torque cell (Interface, Scottsdale, Ariz.). The testing was carried out to failure at a rate of 2°/sec and a data recording rate of 20 Hz. Both the fractured and intact femora were tested in internal rotation in proper anatomic orientation. The peak torque and angle at failure were calculated from the load-deformation curves. Internal fracture callus dimensions were measured after mechanical testing. […]

For experiment [4] the test system is unchanged. Briefly: Closed femur fracture healing in rats, histology. Type of experiment: in vivo, rat. The note with it: for Fracture callus histology: two weeks post-fracture. As to the method: Retired breeder female Sprague-Dawley rats were purchased from Taconic Farms. The rats were housed in pairs and given food and water ad libitum. A total of 124 rats were purchased for these experiments (Table 4). However, only 65 rats were used for the final set of experiments as described in Table 4. Drugs were first administered to the rats by gavage using PEG300 (Sigma) as a carrier (0.5 ml per kg). […] The p38 MAP kinase inhibitor used in the experiments is compound 25, Table B. Rofecoxib was obtained by pulverizing Vioxx pills (Merck).
as §2
Femurs were dissected from rats at 2, 4, 6, and 8 weeks as detailed in Appendix A. Soft tissue was dissected from the femurs and the femurs were fixed overnight in buffered formalin. The femurs were then embedded in polymethylmethacrylate (PMMA) following standard procedures. Longitudinal sections (˜200 um thick) were cut from the PMMA blocks and ground and polished to a thickness of approximately 50-100 um. The sections were then stained with Van Gieson's picrofuschin and Stevenel's Blue. […] Sections were photographed with an Olympus BH2 microscope.

A further experiment concerns fracture healing in rats. Put plainly: Prior experiments: fracture healing in rats treated with a COX-2 inhibitor. It counts as in vivo, rat.
Setting [5] is: Group C, 4 weeks post-fracture, rofecoxib 3 mg/kg/day.
Where [6] appears, read: Groups A and B, 8 weeks post-fx, rofecoxib 3 mg/kg/day.
Setting [7] is: Group C, 4 weeks post-fracture, 30 mg/kg/day.
The mark [8] stands for this setting: Group C, 4 weeks post-fracture, 2×30 mg/kg/day.
Setting [9] is: Groups A and B (rats 1-57), twice-a-day treated rats.
[10] abbreviates: Groups A and B, 4 weeks post-fx, 30 mg/kg/day.
Setting [11] is: Groups A and B, 6 weeks post-fx, 30 mg/kg/day.
Where [12] appears, read: Groups A and B, 6 weeks post-fx, 2×30 mg/kg/day.
Setting [13] is: Groups A and B, 8 weeks post-fx, 2×30 mg/kg/day.
Setting [14] is: advanced disease, 90 mg/kg bid oral, 20 days.

Turning to `C[C@@H]1CN(Cc2ccc(F)cc2)[C@@H](C)CN1C(=O)c1cc2c(C(=O)C(=O)N(C)C)c[nH]c2cc1Cl` [compound 162], the “Histological analysis of joint lesion morphology” value in experiment [1] (treatment initiated at onset of disease, 90 mg/kg bid oral, 10 days) was “dramatic reduction in all aspects of joint lesion morphology including reduced cartilage and bone erosions”. For the same molecule, in experiment [1] (treatment initiated at onset of disease, 90 mg/kg bid oral, 10 days, mean ± std dev, vehicle 7.0±3.4), the clinical scoring worked out at 2.4±1.5.
Turning to `CS(=O)(=O)c1ccc(C2=C(c3ccccc3)C(=O)OC2)cc1` [Rofecoxib, rofecoxib, reference compound], the “Radiographic score, Mean” value in experiment [2] (4 weeks post-fracture, rofecoxib 3 mg/kg oral once a day for 5 days) is listed as 0.83. In addition, the “Bridging of the fracture in radiographs” value in experiment [2] (4 weeks post-fracture, rofecoxib 3 mg/kg once a day) was “little or no bridging was evident”. In addition, the figures for the “NSS = normalized shear stress” value in experiment [3] (setting [5]) and in experiment [3] (setting [6]) were 13 ± 9 and 16 ± 8, respectively. The “NTR = normalized torsional rigidity” value in experiment [3] (setting [5]) came out at 19 ± 9; in experiment [3] (setting [6]), 100 ± 82. In addition, the “NPT = normalized peak torque” value in experiment [3] (Group C, 4 weeks post-fracture, rofecoxib 3 mg/kg/day, percentage of fractured femur relative to contralateral femur) was determined as 32 ± 3; in experiment [3] (setting [6]), 57 ± 42. For the same molecule, the Fibrous non-unions entry in experiment [4] (rofecoxib, 5 days of treatment) was “development of fibrous non-unions in some of the rofecoxib treated rats”. Also, in experiment [4] (rofecoxib 3 mg/kg once a day), the Fracture callus histology is listed as “less woven bone formation was observed”. The Fracture healing result in the experiment with fracture healing in rats is “dramatically impaired”.
For `COc1cc2c(cc1C(=O)N1CCC(Cc3ccc(F)cc3)CC1)c(C(=O)C(=O)N(C)C)cn2C` [compound 25], the “Radiographic scores compared with control and rofecoxib” value in experiment [2] (4 week post-fracture radiographs, 30 mg/kg once or twice per day) was “significantly higher scores than the control or rofecoxib treated rats”. Also, the “Radiographic score, Mean” value in experiment [2] (4 weeks post-fracture, 30 mg/kg oral once per day for 5 days) came to 3.2; in experiment [2] (4 weeks post-fracture, 30 mg/kg oral twice per day for 5 days), 3.75. The “Effect on fracture healing (overall)” value in experiment [2] (oral 30 mg/kg once or twice per day) is “does not negatively affect fracture healing and can actually enhance or accelerate the healing process”. In experiment [3] (Group C, 4 weeks post-fracture), the “Normalized peak torque compared with rofecoxib and control” value was “significantly increased normalized peak torque relative to rofecoxib treated rats but not relative to the control animals”. Moreover, the “NSS = normalized shear stress” value worked out at 15 ± 8 in experiment [3] (setting [7]); 10 ± 4 in experiment [3] (setting [8]); 14.1 in experiment [3] (setting [10]); 36 ± 11 in experiment [3] (setting [11]); 63 in experiment [3] (setting [12]); 45 ± 1 in experiment [3] (setting [13]). Also, the “NTR = normalized torsional rigidity” value in experiment [3] (setting [7]) came to 28 ± 24; in experiment [3] (setting [8]) it was 61 ± 55; in experiment [3] (setting [10]), 69; in experiment [3] (setting [11]), 109 ± 52; in experiment [3] (setting [12]), 126; in experiment [3] (setting [13]) it was 156 ± 68. Besides, the “NPT = normalized peak torque” value is 50 ± 11 in experiment [3] (Group C, 4 weeks post-fracture, 30 mg/kg/day, percentage of fractured relative to contralateral femur); 48 ± 14 in experiment [3] (Group C, 4 weeks post-fracture, 2×30 mg/kg/day, percentage of fractured relative to contralateral femur); 57 in experiment [3] (setting [10]); 85 ± 17 in experiment [3] (setting [11]); 97 in experiment [3] (setting [12]); 158 ± 46 in experiment [3] (setting [13]). In addition, the normalized peak torque in experiment [3] (setting [9]) is on record as roughly 150%. Moreover, the normalized torsional rigidity in experiment [3] (setting [9]) is on record as roughly 150%. The “Histological analysis of fracture healing (summary)” value in experiment [4] (30 mg/kg once or twice per day) is “enhanced fracture healing by increasing and/or accelerating calcified cartilage formation as well as new bone formation”. The “Amount of osteoclasts within the fracture callus” value in experiment [4] (not quantified) is “appeared to approximate levels found in control rats”. Also, the Fracture callus histology in experiment [4] (30 mg/kg once per day) is “a near normal amount of woven bone but more than normal amounts of chondrocytes”; in experiment [4] (30 mg/kg twice per day), “advanced healing with the fracture gap almost filled with newly formed woven bone”. Moreover, the “cartilage and bone healing by histological assessment” value in experiment [1] (setting [14]) was “evidence of cartilage and bone healing”. In experiment [1] (setting [14]), the “serum cartilage oligomeric matrix protein (COMP)” value is “reduced serum cartilage oligomeric matrix protein”. Moreover, the osteoclast number entry in experiment [1] (advanced disease, compared to baseline and vehicle treated groups) is “reduced osteoclast number”. This molecule had a clinical scoring in experiment [1] (treatment initiated in advanced disease, 90 mg/kg bid oral, 20 days, vehicle 9.1±2.2) of 4.9±1.7.

The record behind these values is patent publication US7268139B2, “Methods of promoting osteogenesis” (Scios, Inc., priority 2002, dated 2007).
